{"source": "patent US20090124619A1", "about": "“NOVEL COMPOUNDS” (priority 2005, published 2009)", "key": {"[1]": {"molecular_target": "T1, TRPV4 (Homo sapiens, UniProt Q9HBA0)", "T1 construct": "expressed in transfected cells; host or cells: HEK cells", "T1 sequence (Q9HBA0 whole entry)": "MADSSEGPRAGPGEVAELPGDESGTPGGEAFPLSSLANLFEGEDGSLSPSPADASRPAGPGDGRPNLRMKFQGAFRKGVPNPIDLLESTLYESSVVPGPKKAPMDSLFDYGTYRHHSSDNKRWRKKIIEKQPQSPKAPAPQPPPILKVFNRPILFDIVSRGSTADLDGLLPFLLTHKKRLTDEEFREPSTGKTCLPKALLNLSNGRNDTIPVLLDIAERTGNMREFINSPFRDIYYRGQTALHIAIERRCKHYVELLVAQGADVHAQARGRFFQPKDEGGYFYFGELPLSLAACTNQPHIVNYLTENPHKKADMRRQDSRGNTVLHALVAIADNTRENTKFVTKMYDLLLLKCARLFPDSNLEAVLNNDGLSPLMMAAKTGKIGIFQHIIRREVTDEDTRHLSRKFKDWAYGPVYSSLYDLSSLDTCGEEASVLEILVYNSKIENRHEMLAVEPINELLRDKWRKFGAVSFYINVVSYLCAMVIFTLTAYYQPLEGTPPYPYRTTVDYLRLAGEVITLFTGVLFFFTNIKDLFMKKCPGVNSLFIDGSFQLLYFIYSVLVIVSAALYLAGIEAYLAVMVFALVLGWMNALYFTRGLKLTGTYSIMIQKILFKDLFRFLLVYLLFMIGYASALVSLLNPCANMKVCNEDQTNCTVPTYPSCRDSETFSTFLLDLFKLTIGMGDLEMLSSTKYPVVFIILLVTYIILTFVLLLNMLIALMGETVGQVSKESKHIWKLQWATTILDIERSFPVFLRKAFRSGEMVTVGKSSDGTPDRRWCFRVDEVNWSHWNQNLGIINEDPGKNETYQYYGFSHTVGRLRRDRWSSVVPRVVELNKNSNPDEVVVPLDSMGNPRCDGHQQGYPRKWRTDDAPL", "assay": "FLIPR assay using TRPV4 expressing HEK cells", "format": "cell-based", "conditions": "FLIPR method; pEC50 = −log10(EC50 μM)", "source_text": "Other techniques used to measure TRPV4 channel receptor activation in chondrocytes include, but are not limited to: FLIPR assay, measuring a compound's capability to reduce the amount of ADAMTSs produced and/or released in response to a catabolic stimulus by a cell comprising a TRPV4 channel receptor; measuring a compound's capability to reduce the amount of MMPs produced and/or released in response to a catabolic stimulus by a cell comprising a TRPV4 channel receptor; measuring a compound's capability to effect the amount of nitric oxide (NO) produced in response to a catabolic stimulus by a cell comprising a TRPV4 channel receptor; and measuring a compound's capability to attenuate the inhibition of matrix synthesis in response to a catabolic stimulus by a cell comprising a TRPV4 channel receptor.\n(§1) All exemplary compounds of the present invention were assessed using at least one of the biological assays presented above. Compounds presented in the Examples had EC50 values of about 0.01 μM to 30 μM as measured by Flex Station using bovine articular chondrocytes and pEC50 values between about 5.0 to about 7.5 as measured by FLIPR assay using TRPV4 expressing HEK cells."}, "[2]": {"molecular_target": "T2, TRPV4 channel receptors (Bos taurus, UniProt A0A8F4X677)", "T2 construct": "obtained using this method in bovine articular chondrocytes; endogenous in cells; host or cells: bovine articular chondrocytes (primary)", "T2 sequence (A0A8F4X677 1-871)": "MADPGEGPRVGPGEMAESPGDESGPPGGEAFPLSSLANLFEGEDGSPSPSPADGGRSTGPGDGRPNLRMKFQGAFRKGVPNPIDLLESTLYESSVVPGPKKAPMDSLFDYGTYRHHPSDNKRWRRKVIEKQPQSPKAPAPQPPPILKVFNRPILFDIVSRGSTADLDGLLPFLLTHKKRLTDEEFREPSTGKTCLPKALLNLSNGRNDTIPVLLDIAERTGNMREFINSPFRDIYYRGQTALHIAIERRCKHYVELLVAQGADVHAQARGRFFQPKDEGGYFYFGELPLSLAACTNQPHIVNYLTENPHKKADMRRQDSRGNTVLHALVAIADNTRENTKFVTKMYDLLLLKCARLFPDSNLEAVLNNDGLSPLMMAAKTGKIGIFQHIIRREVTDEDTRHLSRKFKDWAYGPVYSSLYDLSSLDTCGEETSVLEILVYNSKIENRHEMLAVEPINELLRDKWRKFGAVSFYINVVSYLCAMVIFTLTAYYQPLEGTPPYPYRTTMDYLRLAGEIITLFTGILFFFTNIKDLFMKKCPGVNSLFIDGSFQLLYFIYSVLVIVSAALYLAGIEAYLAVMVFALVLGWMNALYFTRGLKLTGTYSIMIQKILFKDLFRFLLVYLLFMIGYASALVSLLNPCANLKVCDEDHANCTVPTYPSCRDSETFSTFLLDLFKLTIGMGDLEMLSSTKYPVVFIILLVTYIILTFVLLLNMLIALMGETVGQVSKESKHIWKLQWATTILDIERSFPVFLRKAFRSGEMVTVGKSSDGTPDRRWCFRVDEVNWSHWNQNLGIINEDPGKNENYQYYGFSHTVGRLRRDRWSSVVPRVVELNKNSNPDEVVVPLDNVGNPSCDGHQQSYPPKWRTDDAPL", "assay": "Ca2+ influx, Fura-2 fluorescence on FlexStation in bovine articular chondrocytes", "format": "cell-based", "source_text": "Ca^2+ influx mediated through TRPV4 channel receptors can be measured using articular chondrocytes from such species as, but not limited to, human, rat, canine, rabbit, monkey, and bovine, using standard techniques in the art such as, but not limited to, Fura-2 (Invitrogen/Molecular Probes, Eugene, Oreg.) fluorescence using a FlexStation (manufactured by Molecular Devices, Sunnyvale, Calif.). Table 1 lists biological data for several representative compounds obtained using this method in bovine articular chondrocytes.\nas §1"}}, "data": [{"smiles": "CC(C)C[C@H](NC(=O)c1cc2ccccc2s1)C(=O)NCC1CN(S(=O)(=O)c2ccc(Cl)cc2Cl)CCO1", "note": "(stereo partly drawn) [Example 14, N-((1S)-1-{[({4-[(2,4-dichlorophenyl)sulfonyl]-2-morpholinyl}methyl)amino]carbonyl}-3-methylbutyl)-1-benzothiophene-2-carboxamide]", "values": [{"measurement": "EC50", "setting": "[1]", "value": "≤ 0.1", "unit": "µM"}]}, {"smiles": "CC(C)[C@H](NC(=O)CCC1CCCC1)C(=O)NCC1CN(S(=O)(=O)c2ccccc2C#N)CCO1", "note": "(stereo partly drawn) [Example 44, N1-({4-[(2-cyanophenyl)sulfonyl]-2-morpholinyl}methyl)-N2-(3-cyclopentylpropanoyl)-L-valinamide]", "values": [{"measurement": "EC50", "setting": "[1]", "value": "0.1 to 1.12", "unit": "µM"}]}, {"smiles": "CC[C@H](C)[C@H](NC(=O)c1cc2ccccc2s1)C(=O)NCC1CN(S(=O)(=O)c2ccccc2C#N)CCO1", "note": "(stereo partly drawn) [Example 18, N-((1S,2S)-1-{[({4-[(2-cyanophenyl)sulfonyl]-2-morpholinyl}methyl)amino]carbonyl}-2-methylbutyl)-1-benzothiophene-2-carboxamide]", "values": [{"measurement": "EC50", "setting": "[2]", "value": "> 0.9", "unit": "µM"}]}, {"smiles": "CC(C)C[C@H](NC(=O)c1cc2ccccc2s1)C(=O)NC[C@@H]1CN(S(=O)(=O)c2ccccc2C#N)CCO1", "note": "[Example 21, N-((1S)-1-{[({(2R)-4-[(2-cyanophenyl)sulfonyl]-2-morpholinyl}methyl)amino]carbonyl}-3-methylbutyl)-1-benzothiophene-2-carboxamide]", "values": [{"measurement": "EC50", "setting": "[2]", "value": "0.001 to 0.16", "unit": "µM"}]}, {"smiles": "O=C(CCC1CCCC1)N[C@H](C(=O)NCC1CN(S(=O)(=O)c2ccc(Cl)cc2Cl)CCO1)c1ccccc1", "note": "(stereo partly drawn) [Example 60, 3-cyclopentyl-N-{(1S)-2-[({4-[(2,4-dichlorophenyl)sulfonyl]-2-morpholinyl}methyl)amino]-2-oxo-1-phenylethyl}propanamide]", "values": [{"measurement": "EC50", "setting": "[1]", "value": "1.12 to 10", "unit": "µM"}]}, {"smiles": "CC(C)C[C@H](NC(=O)c1cc2ccccc2s1)C(=O)NC[C@H]1CN(S(=O)(=O)c2ccccc2C#N)CCO1", "note": "[Example 24, N-((1S)-1-{[({(2S)-4-[(2-cyanophenyl)sulfonyl]-2-morpholinyl}methyl)amino]carbonyl}-3-methylbutyl)-1-benzothiophene-2-carboxamide]", "values": [{"measurement": "EC50", "setting": "[2]", "value": "0.16 to 0.9", "unit": "µM"}]}]}
